In ChEMBL document CHEMBL1142622, “Inhibition of phospholipase cgamma1 and cancer cell proliferation by triterpene esters from Uncaria rhynchophylla” (J Nat Prod, 2000) one finds IC50 data, which are given here for 2 compounds.

In one test the test system is HT1197. Put plainly: Antiproliferative activity against PLCgamma1 expressing human HT1197 cells. Type of test: functional, cell-based.
The next test concerns HCT-15. Nature of the test: Antiproliferative activity against PLCgamma1 expressing human HCT15 cells. Type of test: functional, cell-based.
In the next test the test system is NIH3T3. Put plainly: Inhibition of PDGF-induced phosphotidyl inositol turnover in PLCgamma1 expressing mouse NIH3T3 cells. Format: functional, cell-based.
Test [1] deals with T1, 1-phosphatidylinositol 4,5-bisphosphate phosphodiesterase gamma-1 (Homo sapiens, UniProt P19174).
T1 sequence (P19174 whole entry): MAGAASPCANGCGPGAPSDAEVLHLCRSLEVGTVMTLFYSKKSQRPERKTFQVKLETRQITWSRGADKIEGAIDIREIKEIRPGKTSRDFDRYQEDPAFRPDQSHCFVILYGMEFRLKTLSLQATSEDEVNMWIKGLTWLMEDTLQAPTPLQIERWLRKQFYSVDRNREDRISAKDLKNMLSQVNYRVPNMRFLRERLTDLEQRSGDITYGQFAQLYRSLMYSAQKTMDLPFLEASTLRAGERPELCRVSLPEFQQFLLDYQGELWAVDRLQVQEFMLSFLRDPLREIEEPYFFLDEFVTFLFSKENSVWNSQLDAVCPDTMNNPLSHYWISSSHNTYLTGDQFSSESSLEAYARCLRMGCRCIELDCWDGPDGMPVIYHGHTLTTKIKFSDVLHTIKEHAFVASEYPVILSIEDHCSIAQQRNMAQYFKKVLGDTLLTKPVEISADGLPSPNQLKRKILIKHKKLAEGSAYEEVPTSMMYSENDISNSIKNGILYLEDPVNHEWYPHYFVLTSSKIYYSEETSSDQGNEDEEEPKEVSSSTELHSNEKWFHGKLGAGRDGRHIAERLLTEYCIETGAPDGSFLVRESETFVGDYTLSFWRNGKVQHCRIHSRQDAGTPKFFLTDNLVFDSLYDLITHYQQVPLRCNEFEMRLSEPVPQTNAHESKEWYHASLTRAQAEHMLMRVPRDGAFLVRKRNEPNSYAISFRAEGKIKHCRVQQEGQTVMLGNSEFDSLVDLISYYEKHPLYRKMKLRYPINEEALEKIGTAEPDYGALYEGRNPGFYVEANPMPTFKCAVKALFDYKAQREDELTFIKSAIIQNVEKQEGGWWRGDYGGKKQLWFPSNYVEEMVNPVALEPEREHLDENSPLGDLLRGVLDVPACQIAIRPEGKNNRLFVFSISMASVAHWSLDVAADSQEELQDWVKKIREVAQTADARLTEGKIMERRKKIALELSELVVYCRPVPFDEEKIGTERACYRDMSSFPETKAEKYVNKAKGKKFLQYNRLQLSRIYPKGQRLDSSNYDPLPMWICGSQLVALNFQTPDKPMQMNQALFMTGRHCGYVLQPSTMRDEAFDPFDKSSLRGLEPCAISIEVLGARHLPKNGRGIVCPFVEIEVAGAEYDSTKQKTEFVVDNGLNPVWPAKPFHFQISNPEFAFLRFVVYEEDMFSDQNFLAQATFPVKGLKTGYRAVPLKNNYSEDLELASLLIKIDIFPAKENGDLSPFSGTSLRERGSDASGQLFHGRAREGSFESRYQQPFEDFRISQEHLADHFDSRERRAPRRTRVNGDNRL
Nature of the test: Inhibition of PLCgamma1.

In brackets after ≈: the same amount, converted by molar mass.

Turning to `COc1cccc2c1C(=O)c1c(O)c3c(c(O)c1C2=O)C[C@@](O)(C(=O)CO)C[C@@H]3O[C@H]1C[C@H](N)[C@H](O)[C@H](C)O1` [DOXORUBICIN], the IC50 – broadly, the concentration that inhibits the measured activity by half – is 0.03 µg/mL (≈ 0.0552 µM) with HT1197 and 13.4 µg/mL (≈ 24.7 µM) in the test with HCT-15.
Consider `O=c1cc(-c2ccc(O)c(-c3c(O)cc(O)c4c(=O)cc(-c5ccc(O)cc5)oc34)c2)oc2cc(O)cc(O)c12` [AMENTOFLAVONE], for which the half-maximal inhibitory concentration (IC50) in the test with NIH3T3 worked out at 9.2 µM; in test [1], 29 µM.
